Earlier results on two compounds are cited in US12708665B2, “Anti-IL-1β antibody therapy in arrhythmogenic cardiomyopathy (ACM)” (Beth Israel Deaconess Medical Center, Inc., priority 2019, dated 2026).

Data set [1] relates to in vitro and in vivo models of ACM. The settings on record: multiple in vitro and in vivo models of ACM, human iPSC-cardiac myocytes from ACM patients; cited from earlier work.
In data set [2] the test system is patients with coronary artery disease. The settings on record: cited from earlier work.

In the case of `Cn1cc(C2=C(c3ccc(Cl)cc3Cl)C(=O)NC2=O)c2ccccc21` [SB216763], in data set [1], the “effect on ACM disease phenotype (arrhythmias, exercise-induced sudden death, myocyte injury and apoptosis, inflammation, contractile dysfunction)” value is given as “prevent and/or reverse the full ACM disease phenotype”.

On to “monoclonal antibody against IL-1β: monoclonal antibody against IL-1β used in the CANTOS trial (ref. 36)”, for which the “infectious complications related to immunosuppression” value in data set [2] (in vivo) is “not associated with significant infectious complications”. Besides, in data set [2] (patients with coronary artery disease, CANTOS trial), the “major adverse cardiac events” value is given as “significantly reduced”.
